Our source for the IC50 values is US20160159814A1, “GLYCINE TRANSPORTER INHIBITOR” (TAISHO PHARMACEUTICAL CO., LTD., priority 2013, published 2016).

SMILES strings stand for the structures.

In the first assay the target is T1, human type 1 glycine transporter (GlyT1) (Homo sapiens, UniProt P48067).
T1 construct: T98G cells (glioma cells) expressing human type 1 glycine transporter (GlyT1) were used; endogenous in cells; host or cells: T98G cells (human glioma cells)
T1 sequence (P48067 1-706): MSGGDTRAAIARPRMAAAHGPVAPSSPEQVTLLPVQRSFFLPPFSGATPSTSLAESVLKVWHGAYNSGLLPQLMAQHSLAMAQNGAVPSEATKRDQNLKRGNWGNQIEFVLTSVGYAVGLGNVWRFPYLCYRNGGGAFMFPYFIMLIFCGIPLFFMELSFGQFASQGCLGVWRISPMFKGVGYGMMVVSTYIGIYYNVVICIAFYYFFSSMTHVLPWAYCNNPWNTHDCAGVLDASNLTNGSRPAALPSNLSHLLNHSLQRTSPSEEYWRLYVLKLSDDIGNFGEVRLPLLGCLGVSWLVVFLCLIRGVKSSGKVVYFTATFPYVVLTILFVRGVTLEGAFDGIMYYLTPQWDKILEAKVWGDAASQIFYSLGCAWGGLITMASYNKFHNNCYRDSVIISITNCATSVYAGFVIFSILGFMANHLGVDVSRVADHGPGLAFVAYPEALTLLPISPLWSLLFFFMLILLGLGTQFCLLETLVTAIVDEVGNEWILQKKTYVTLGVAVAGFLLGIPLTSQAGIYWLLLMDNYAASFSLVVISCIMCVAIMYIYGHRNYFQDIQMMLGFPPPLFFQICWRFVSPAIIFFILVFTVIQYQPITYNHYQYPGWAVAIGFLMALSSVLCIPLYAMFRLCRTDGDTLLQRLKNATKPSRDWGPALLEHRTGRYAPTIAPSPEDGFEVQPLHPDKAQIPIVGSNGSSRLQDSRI
Briefly: Glycine uptake inhibition experiment ([3H] glycine uptake in T98G cells expressing GlyT1). Type of assay: cell-based.
Conditions: not given
In a few lines:
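T98G glioma cells expressing human GlyT1 were pretreated 10 min with compound in HEPES buffer pH 7.4 (0.2% BSA), then incubated with compound plus 250 nM final [3H]glycine for 15 min at room temperature. Intracellular radioactivity was counted after NaOH lysis; 10 μM ALX5407 defined non-specific uptake. IC50 came from 10^−9–10^−5 M curves.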
Broadly, the IC50 is the concentration that inhibits the measured activity by half. Read a low IC50 as greater potency. For the molecule `N#Cc1cc(Cl)cnc1CN1C(=O)C(F)(F)c2c(C(O)C(F)F)cccc21` (single isomer, unassigned) [Compound 276, 5-chloro-2-{[4-(2,2-difluoro-1-hydroxyethyl)-3,3-difluoro-2-oxo-2,3-dihydro-1H-indol-1-yl]methyl}pyridine-3-carbonitrile], it took 0.2 µM to reach half-maximal inhibition (IC50).
With `COc1ccc(CN2C(=O)C(F)(F)c3c([C@H](C)O)cccc32)nc1C#N` [Compound 217, 6-({3,3-difluoro-4-[(1S)-1-hydroxyethyl]-2-oxo-2,3-dihydro-1H-indol-1-yl}methyl)-3-methoxypyridine-2-carbonitrile], it took 0.12 µM to reach half-maximal inhibition (IC50).

The same assay, now with this note: glycine uptake inhibition.
`C[C@H](O)c1cccc2c1C(F)(F)C(=O)N2Cc1ccc(F)nc1` [Compound 128, 3,3-difluoro-1-[(S-fluoropyridin-3-yl)methyl]-4-[(1S)-1-hydroxyethyl]-1,3-dihydro-2H-indol-2-one]: the IC50 is 0.052 µM.
Same read-out and setting: as for `C[C@H](O)c1cccc2c1C(F)(F)C(=O)N2Cc1cncc(-n2cncn2)c1` [Compound 129], the figure is 6.9 µM.
On the same count and under the same terms, as for `C[C@H](O)c1cccc2c1C(F)(F)C(=O)N2Cc1cccc(-n2nccn2)n1` [Compound 44, 3,3-difluoro-4-[(1S)-1-hydroxyethyl]-1-{[6-(2H-1,2,3-triazol-2-yl)pyridin-2-yl]methyl}-1,3-dihydro-2H-indol-2-one], the figure is 0.068 µM; as for `N#Cc1cc(CN2C(=O)C(F)(F)c3c(C(O)C(F)F)cccc32)ccn1` (single isomer, unassigned) [Compound 109, 4-{[4-(2,2-difluoro-1-hydroxyethyl]-3,3-difluoro-2-oxo-2,3-dihydro-1H-indol-1-yl]methyl}pyridine-2-carbonitrile], 0.088 µM; as for `CC(c1cccc(Cl)n1)N1C(=O)C(F)(F)c2c([C@H](C)O)cccc21` (single isomer, unassigned) [Compound 53], 0.14 µM.
`C[C@H](O)c1cccc2c1C(F)(F)C(=O)N2Cc1cncc(Cl)n1` [Compound 72, 1-[(6-chloropyrazin-2-yl)methyl]-3,3-difluoro-4-[(1S)-1-hydroxyethyl]-1,3-dihydro-2H-indol-2-one] showed an IC50 of 0.012 µM.

The assay is the same for the next values; noted with them: table section whose head prints (μm).
As for `N#Cc1nc(CN2C(=O)C(F)(F)c3c(C(O)C(F)F)cccc32)ccc1Cl` (single isomer, unassigned) [Compound 271, 3-chloro-6-{[4-(2,2-difluoro-1-hydroxyethyl)-3,3-difluoro-2-oxo-2,3-dihydro-1H-indol-1-yl]methyl}pyridine-2-carbonitrile], the IC50 worked out at 0.0055 µM.
